Test results: PubChem BioAssay (NCI)
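GI50 is the concentration that inhibits growth by half. At the TGI there is no net growth.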

Tests used:
Experiment in all cases: NCI anticancer screen, dose series, 384-well format
LOX IMVI melanoma = test system: LOX IMVI melanoma
CAKI-1 renal = test system: CAKI-1 renal
SK-MEL-5 melanoma = test system: SK-MEL-5 melanoma
SK-OV-3 ovarian = test system: SK-OV-3 ovarian
A498 renal = test system: A498 renal
SF-295 CNS = test system: SF-295 CNS
EKVX NSCLC = test system: EKVX NSCLC
NCI-H460 NSCLC = test system: NCI-H460 NSCLC
MDA-MB-231 breast = test system: MDA-MB-231 breast
MDA-MB-435 melanoma = test system: MDA-MB-435 melanoma
MALME-3M melanoma = test system: MALME-3M melanoma
HCC-2998 colon = test system: HCC-2998 colon
HCT-15 colon = test system: HCT-15 colon
SN12C renal = test system: SN12C renal
CCRF-CEM leukemia = test system: CCRF-CEM leukemia
786-0 renal = test system: 786-0 renal
SNB-75 CNS = test system: SNB-75 CNS
OVCAR-5 ovarian = test system: OVCAR-5 ovarian
SF-539 CNS = test system: SF-539 CNS
OVCAR-8 ovarian = test system: OVCAR-8 ovarian
MOLT-4 leukemia = test system: MOLT-4 leukemia
HOP-92 NSCLC = test system: HOP-92 NSCLC
SF-268 CNS = test system: SF-268 CNS
M14 melanoma = test system: M14 melanoma
NCI-H522 lung = test system: NCI-H522 lung
PC-3 prostate = test system: PC-3 prostate
TK-10 renal = test system: TK-10 renal
NCI-H226 lung = test system: NCI-H226 lung
SNB-19 CNS = test system: SNB-19 CNS
HL-60(TB) leukemia = test system: HL-60(TB) leukemia
RXF 393 renal = test system: RXF 393 renal
SK-MEL-28 melanoma = test system: SK-MEL-28 melanoma
UACC-257 melanoma = test system: UACC-257 melanoma
IGROV1 ovarian = test system: IGROV1 ovarian
HCT-116 colon = test system: HCT-116 colon
MCF7 breast = test system: MCF7 breast
UO-31 renal = test system: UO-31 renal
NCI-H23 lung = test system: NCI-H23 lung
MDA-MB-468 breast = test system: MDA-MB-468 breast
OVCAR-4 ovarian = test system: OVCAR-4 ovarian
HS 578T breast = test system: HS 578T breast
NCI-H322M lung = test system: NCI-H322M lung
A549 NSCLC = test system: A549 NSCLC
DU-145 prostate = test system: DU-145 prostate
BT-549 breast = test system: BT-549 breast
COLO 205 colon = test system: COLO 205 colon
K-562 leukemia = test system: K-562 leukemia
OVCAR-3 ovarian = test system: OVCAR-3 ovarian
UACC-62 melanoma = test system: UACC-62 melanoma
HT29 colon = test system: HT29 colon
ACHN renal = test system: ACHN renal
NCI/ADR-RES ovarian = test system: NCI/ADR-RES ovarian
U251 glioblastoma = test system: U251 glioblastoma
HOP-62 NSCLC = test system: HOP-62 NSCLC
KM12 colon = test system: KM12 colon
SW-620 colon = test system: SW-620 colon
RPMI-8226 leukemia = test system: RPMI-8226 leukemia
T-47D breast = test system: T-47D breast
SR leukemia = test system: SR leukemia

## COc1ccccc1N1CCN(C(=O)c2ccc(NS(=O)(=O)c3cccc4cccnc34)cc2)CC1
LOX IMVI melanoma
  GI50: > 100 µM
  TGI: > 100 µM
CAKI-1 renal
  GI50: 74.5 µM
  TGI: > 100 µM
SK-MEL-5 melanoma
  GI50: 7.09 µM
  TGI: > 100 µM
SK-OV-3 ovarian
  GI50: 38.9 µM
  TGI: > 100 µM
A498 renal
  GI50: 71.9 µM
  TGI: > 100 µM
SF-295 CNS
  GI50: > 100 µM
  TGI: > 100 µM
EKVX NSCLC
  GI50: 37.9 µM
  TGI: > 100 µM
NCI-H460 NSCLC
  GI50: 14.1 µM
  TGI: 31 µM
MDA-MB-231 breast
  GI50: 63.5 µM
  TGI: > 100 µM
MDA-MB-435 melanoma
  GI50: 20.4 µM
  TGI: 42.9 µM
MALME-3M melanoma
  GI50: > 100 µM
  TGI: > 100 µM
HCC-2998 colon
  GI50: 12.7 µM
  TGI: 56.1 µM
HCT-15 colon
  GI50: 28.9 µM
  TGI: > 100 µM
SN12C renal
  GI50: 61.3 µM
  TGI: > 100 µM
CCRF-CEM leukemia
  GI50: 9.02 µM
  TGI: 23.6 µM
786-0 renal
  GI50: 40.8 µM
  TGI: > 100 µM
SNB-75 CNS
  GI50: > 100 µM
  TGI: > 100 µM
OVCAR-5 ovarian
  GI50: > 100 µM
  TGI: > 100 µM
SF-539 CNS
  GI50: 32 µM
  TGI: > 100 µM
OVCAR-8 ovarian
  GI50: 28.1 µM
  TGI: > 100 µM
MOLT-4 leukemia
  GI50: 4.05 µM
  TGI: > 100 µM
HOP-92 NSCLC
  GI50: > 100 µM
  TGI: > 100 µM
SF-268 CNS
  GI50: 13.7 µM
  TGI: 47.4 µM
M14 melanoma
  GI50: 26.9 µM
  TGI: 84.9 µM
NCI-H522 lung
  GI50: 16.8 µM
  TGI: 34.2 µM
PC-3 prostate
  GI50: 56 µM
  TGI: > 100 µM
TK-10 renal
  GI50: > 100 µM
  TGI: > 100 µM
NCI-H226 lung
  GI50: 8.48 µM
  TGI: > 100 µM
SNB-19 CNS
  GI50: 52.1 µM
  TGI: > 100 µM
HL-60(TB) leukemia
  GI50: 18.2 µM
  TGI: 33.3 µM
RXF 393 renal
  GI50: 18.2 µM
  TGI: 80.9 µM
SK-MEL-28 melanoma
  GI50: > 100 µM
  TGI: > 100 µM
UACC-257 melanoma
  GI50: > 100 µM
  TGI: > 100 µM
IGROV1 ovarian
  GI50: > 100 µM
  TGI: > 100 µM
HCT-116 colon
  GI50: 32.8 µM
  TGI: > 100 µM
MCF7 breast
  GI50: 24.5 µM
  TGI: > 100 µM
UO-31 renal
  GI50: > 100 µM
  TGI: > 100 µM
NCI-H23 lung
  GI50: > 100 µM
  TGI: > 100 µM
MDA-MB-468 breast
  GI50: 4.03 µM
  TGI: 17.6 µM
OVCAR-4 ovarian
  GI50: > 100 µM
  TGI: > 100 µM
HS 578T breast
  GI50: 25.9 µM
  TGI: > 100 µM
NCI-H322M lung
  GI50: 53.4 µM
  TGI: > 100 µM
A549 NSCLC
  GI50: 18.5 µM
  TGI: > 100 µM
DU-145 prostate
  GI50: > 100 µM
  TGI: > 100 µM
BT-549 breast
  GI50: 33 µM
  TGI: > 100 µM
COLO 205 colon
  GI50: 31.5 µM
  TGI: > 100 µM
K-562 leukemia
  GI50: 10 µM
  TGI: 34.6 µM
OVCAR-3 ovarian
  GI50: 24.9 µM
  TGI: 81.4 µM
UACC-62 melanoma
  GI50: 58.6 µM
  TGI: > 100 µM
HT29 colon
  GI50: > 100 µM
  TGI: > 100 µM
ACHN renal
  GI50: > 100 µM
  TGI: > 100 µM
NCI/ADR-RES ovarian
  GI50: > 100 µM
  TGI: > 100 µM
U251 glioblastoma
  GI50: 40.7 µM
  TGI: > 100 µM
HOP-62 NSCLC
  GI50: 32.1 µM
  TGI: > 100 µM
KM12 colon
  GI50: > 100 µM
  TGI: > 100 µM
SW-620 colon
  GI50: 44.8 µM
  TGI: > 100 µM
RPMI-8226 leukemia
  GI50: 10.2 µM
  TGI: 23.6 µM

## COc1cc2c(Nc3ccc(Br)cc3F)ncnc2cc1OCC1CCN(C)CC1
LOX IMVI melanoma
  GI50: 2.04 µM
  TGI: 4.24 µM
CAKI-1 renal
  GI50: 1.23 µM
  TGI: 2.55 µM
SK-MEL-5 melanoma
  GI50: 1.54 µM
  TGI: 3.02 µM
SK-OV-3 ovarian
  GI50: 1.93 µM
  TGI: 6.31 µM
A498 renal
  GI50: 1.44 µM
  TGI: 3.34 µM
SF-295 CNS
  GI50: 66.6 µM
  TGI: > 100 µM
EKVX NSCLC
  GI50: 0.943 µM
  TGI: 8.63 µM
NCI-H460 NSCLC
  GI50: 4.66 µM
  TGI: 16 µM
MDA-MB-231 breast
  GI50: 1.87 µM
  TGI: 4.3 µM
MDA-MB-435 melanoma
  GI50: 2.59 µM
  TGI: 4.42 µM
MALME-3M melanoma
  GI50: 1.77 µM
  TGI: 3.16 µM
HCC-2998 colon
  GI50: 2.39 µM
  TGI: 5.59 µM
HCT-15 colon
  GI50: 1.98 µM
  TGI: 5.36 µM
SN12C renal
  GI50: 2.33 µM
  TGI: 16.3 µM
786-0 renal
  GI50: 1.37 µM
  TGI: 2.87 µM
SNB-75 CNS
  GI50: 1.57 µM
  TGI: 3.61 µM
OVCAR-5 ovarian
  GI50: 2.19 µM
  TGI: 11.5 µM
T-47D breast
  GI50: 1.33 µM
  TGI: 8.79 µM
SF-539 CNS
  GI50: 2.64 µM
  TGI: 8.64 µM
OVCAR-8 ovarian
  GI50: 2.54 µM
  TGI: 7.23 µM
MOLT-4 leukemia
  GI50: 1.92 µM
  TGI: 5.65 µM
HOP-92 NSCLC
  GI50: 1.37 µM
  TGI: 2.84 µM
SR leukemia
  GI50: 3.54 µM
  TGI: 5.01 µM
SF-268 CNS
  GI50: 2.46 µM
  TGI: 7.05 µM
M14 melanoma
  GI50: 1.98 µM
  TGI: 3.42 µM
NCI-H522 lung
  GI50: 0.616 µM
  TGI: 2.53 µM
PC-3 prostate
  GI50: 3.46 µM
  TGI: 18.4 µM
TK-10 renal
  GI50: 1.98 µM
  TGI: 5.1 µM
NCI-H226 lung
  GI50: 1.3 µM
  TGI: 5.47 µM
SNB-19 CNS
  GI50: 10.6 µM
  TGI: > 100 µM
HL-60(TB) leukemia
  GI50: 2.09 µM
  TGI: 3.53 µM
RXF 393 renal
  GI50: 0.836 µM
  TGI: 2.48 µM
SK-MEL-28 melanoma
  GI50: 1.71 µM
  TGI: 3.11 µM
UACC-257 melanoma
  GI50: 1.9 µM
  TGI: 3.32 µM
IGROV1 ovarian
  GI50: 0.262 µM
  TGI: 1.04 µM
HCT-116 colon
  GI50: 3.1 µM
  TGI: 10.7 µM
MCF7 breast
  GI50: 2.78 µM
  TGI: 11.1 µM
UO-31 renal
  GI50: 1.16 µM
  TGI: 2.46 µM
NCI-H23 lung
  GI50: 3.38 µM
  TGI: 15.5 µM
MDA-MB-468 breast
  GI50: 0.551 µM
  TGI: 1.92 µM
OVCAR-4 ovarian
  GI50: 2.3 µM
  TGI: 10.2 µM
HS 578T breast
  GI50: 1.52 µM
  TGI: 2.92 µM
NCI-H322M lung
  GI50: 0.298 µM
  TGI: 0.9 µM
A549 NSCLC
  GI50: 2.07 µM
  TGI: 11.2 µM
DU-145 prostate
  GI50: 2.22 µM
  TGI: 12.4 µM
BT-549 breast
  GI50: 2.24 µM
  TGI: 5.06 µM
COLO 205 colon
  GI50: 2.35 µM
  TGI: 6.01 µM
OVCAR-3 ovarian
  GI50: 1.05 µM
  TGI: 4.52 µM
UACC-62 melanoma
  GI50: 1.83 µM
  TGI: 3.37 µM
HT29 colon
  GI50: 1.78 µM
  TGI: 3.61 µM
ACHN renal
  GI50: 0.553 µM
  TGI: 3.91 µM
NCI/ADR-RES ovarian
  GI50: 2.24 µM
  TGI: 6.43 µM
U251 glioblastoma
  GI50: 4.46 µM
  TGI: 17.1 µM
HOP-62 NSCLC
  GI50: 2.77 µM
  TGI: 10.4 µM
KM12 colon
  GI50: 5.9 µM
  TGI: 17.4 µM
RPMI-8226 leukemia
  GI50: 2.84 µM
  TGI: 6.12 µM
